Assay results from publication PMC11909086, “Synthesis and characterization of novel bis(thiosemicarbazone) complexes and investigation of their acetylcholinesterase and glutathione S-transferase activities with in silico and in vitro studies” (Molecular Diversity, 2024).

Tests used:
[1] = biological target: T1, GST (glutathione S-transferase); assay: CDNB-GSH conjugation, […] nm, Lineweaver–Burk; format: biochemical; conditions: CDNB and GSH, phosphate pH […]
T1 construct: PDB 7BIB is only the docking model

[2] = biological target: T1, GST (glutathione S-transferase); assay: CDNB-GSH conjugation, […] nm (Habig); format: biochemical; conditions: CDNB and GSH, phosphate pH […]

Ki [1] [µM] | IC50 [2] [µM] | SMILES
9.39 ± 3.3 | 0.374 | C=C(CC)C(=O)c1ccc(OCC(=O)O)c(Cl)c1Cl [Ethacrynic acid, reference compound]
11.7 ± 5.45 | 2.19 | COc1ccc(NN=C2C(=NNC(N)=S)CCCC2=NNC(N)=S)cc1 [L, 2,2′-(2-(2-(4-methoxyphenyl)hydrazineylidene)cyclohexane-1,3-diylidene)bis(hydrazine-1-carbothioamide)]
